Reference: patent US8323656B2, “Antigen determinant of rheumatoid arthritis-specific autoantibody and use thereof” (priority 2007, dated 2012)

Legend:
[1] = tested on: RA-specific antibodies (4 anti-CCP2-positive sera); assay: Indirect (inhibition) ELISA: cross-reactivity of analytes with RA-specific antibodies, immobilized CCP2 as capture antigen; format: binding, human; parameters: Cross-reactivity of antibodies with the named analyte: concentration or dose not given beside the values; details: for Cross-reactivity (%) of RA-specific antibody, modified α-amino acid: alkylation + acetylation: acetylated amino acid methyl ester of the amino acid named; for Cross-reactivity (%) of RA-specific antibody, modified α-amino acid: acetylation: acetylated derivative of the amino acid named; for Cross-reactivity of antibodies with the named analyte: the analyte itself is named; for Cross-reactivity (%) of RA-specific antibody, α-amino acid: unmodified α-amino acid, 0 = cross-reactivity less than 1%
Source text: A complete set of 21 amino acids and their derivatives were used as analytes to determine if any analyte inhibited the action of the detector antibody in binding to the capture antigen. Determination was made by observation at the single AA level through a series of moving windows of different derivatization. Following this procedure ensures that no antigenic elements of the epitope are missed as long as the possible AA derivatives are available. The analysis began in the fluid phase, wherein initially, the detector antibody was incubated with each of the analytes. After overnight incubation at 4° C., 100 μl of analyte preadsorbed detector antibody per well were added into 96-well microplate which immobilized CCP2 on the surface, and was incubated for 1 hour at room temperature with shaking. […] The reaction was stopped by adding 100 μl of 0.5 M H2SO4 per well and the results were estimated at A450 nm.
The concept of indirect ELISA was based upon an inhibition test between an unknown amount of analyte and a known amount of immobilized antigen for a limited number of detector antibody binding-sites. If the contents of detector antibody and immobilized antigen are kept constant, the distribution of detector antibody between immobilized antigen bound detector antibody and analyte bound detector antibody is dependent upon the amount of sample analyte. The mass of immobilized antigen bound detector antibody is inversely proportional to the amount of analyte bound detector antibody.
(§1) As described in FIG. 1, Amino Acid Profiles for the Antigenic Determinant, ELISA was carried out with sera from Euro-diagnostica (serum 1) and from three patients (serum 2, 3, and 4) with RA to CCP2 positive at various concentrations of different amino acids. […] The horizontal line at 100% represents the control percent binding of the CCP2 to the antibody.
as §1, with “2, Acetylamino” for “1, Amino”, “acetylamino” for “amino”
as §1, with “3, Alkylamino” for “1, Amino”, “alkylamino” for “amino”
as §1, with “4, Acetylamino” for “1, Amino”, “Acid Methyl Ester” for “Acid”, “acetylamino acid methyl esters.” for “amino acids.”

[2] = tested on: RA-specific antibodies (4 anti-CCP2-positive sera); assay: as above; format: binding, human; details: unpublished epitope mapping studies; result in words
[3] = methyl esterified (Me) derivative of the amino acid named, 0 = less than 1%

Row | SMILES | Inhibition of antibody binding to the immobilized CCP2 ([1]; FIG. 1 and 2, analyte at 50 mM, 4 sera, result in words) | Cross-reactivity (%) of RA-specific antibody, modified α-amino acid: alkylation + acetylation ([1]; 0 = less than 1%) | Cross-reactivity (%) of RA-specific antibody, modified α-amino acid: acetylation ([1]; 0 = less than 1%) | Cross-reactivity (%) of RA-specific antibody, modified α-amino acid: alkylation ([1]; butyl esterified (Be) derivative) | Cross-reactivity (%) of RA-specific antibody, modified α-amino acid: alkylation ([1]; ethyl esterified (Ee) derivative) | Cross-reactivity (%) of RA-specific antibody, modified α-amino acid: alkylation [1, 3] | Cross-reactivity (%) of RA-specific antibody, modified α-amino acid: alkylation ([1]; propyl esterified (Pe) derivative) | Cross-reactivity of antibodies with the named analyte [1] | Cross-reactivity (%) of RA-specific antibody, α-amino acid [1] | Binding of RA-specific antibodies [2]
1 | NC(=O)NCCC[C@H](N)C(=O)O [Citrulline] | limited capability to inhibit | 100% | 74% | ^Be124% | ^Ee72% | ^Me81% | ^Pe115% | zero | 0% | does not bind
2 | N[C@@H](CC(=O)O)C(=O)O [Aspartic acid] | – | 0% | 0% | – | – | ^Me0% | – | – | 0% | –
3 | N=C(N)NCCC[C@H](N)C(=O)O [Arginine] | – | 13% | 6% | – | – | ^Me5% | – | zero | 0% | –
